This passage reports IC50 results from ChEMBL document CHEMBL4385604, “Identification of Pyrrolo[2,3- d]pyrimidine-Based Derivatives as Potent and Orally Effective Fms-like Tyrosine Receptor Kinase 3 (FLT3) Inhibitors for Treating Acute Myelogenous Leukemia” (J Med Chem, 2019).

Structures are written as SMILES.

As a reminder, the IC50 is the point on the concentration scale where inhibition reaches its midpoint. Higher therefore signals a need for much substance.

Assay [1] has as its system MOLM-13. Kind of assay: cells. Conditions: Homo sapiens, MOLM-13, 72 h.
Description: Antiproliferative activity against human MOLM13 cells harboring FLT3-ITD mutant measured after 72 hrs by MTT assay
Assay [2] concerns RS4-11. Kind of assay: Antiproliferative activity against human RS4:11 cells harboring wild-type FLT3 measured after 72 hrs by MTT assay. In kind it is functional, cell-based. Conditions: RS4-11, 72 h. A general note: Tetrazolium assays rely on reduction of a dye to a coloured formazan, in cell work by metabolically active cells.
For assay [3], the system named is BaF3. The assay is described as follows: cells. Conditions: Mus musculus, BaF3, 72 h.
Description: Antiproliferative activity against mouse BAF3 cells harboring FLT3-ITD-D835V mutant measured after 72 hrs by MTT assay
The target in assay [4] is T1, Receptor-type tyrosine-protein kinase FLT3 (Homo sapiens, UniProt P36888).
T1 sequence (P36888 whole entry): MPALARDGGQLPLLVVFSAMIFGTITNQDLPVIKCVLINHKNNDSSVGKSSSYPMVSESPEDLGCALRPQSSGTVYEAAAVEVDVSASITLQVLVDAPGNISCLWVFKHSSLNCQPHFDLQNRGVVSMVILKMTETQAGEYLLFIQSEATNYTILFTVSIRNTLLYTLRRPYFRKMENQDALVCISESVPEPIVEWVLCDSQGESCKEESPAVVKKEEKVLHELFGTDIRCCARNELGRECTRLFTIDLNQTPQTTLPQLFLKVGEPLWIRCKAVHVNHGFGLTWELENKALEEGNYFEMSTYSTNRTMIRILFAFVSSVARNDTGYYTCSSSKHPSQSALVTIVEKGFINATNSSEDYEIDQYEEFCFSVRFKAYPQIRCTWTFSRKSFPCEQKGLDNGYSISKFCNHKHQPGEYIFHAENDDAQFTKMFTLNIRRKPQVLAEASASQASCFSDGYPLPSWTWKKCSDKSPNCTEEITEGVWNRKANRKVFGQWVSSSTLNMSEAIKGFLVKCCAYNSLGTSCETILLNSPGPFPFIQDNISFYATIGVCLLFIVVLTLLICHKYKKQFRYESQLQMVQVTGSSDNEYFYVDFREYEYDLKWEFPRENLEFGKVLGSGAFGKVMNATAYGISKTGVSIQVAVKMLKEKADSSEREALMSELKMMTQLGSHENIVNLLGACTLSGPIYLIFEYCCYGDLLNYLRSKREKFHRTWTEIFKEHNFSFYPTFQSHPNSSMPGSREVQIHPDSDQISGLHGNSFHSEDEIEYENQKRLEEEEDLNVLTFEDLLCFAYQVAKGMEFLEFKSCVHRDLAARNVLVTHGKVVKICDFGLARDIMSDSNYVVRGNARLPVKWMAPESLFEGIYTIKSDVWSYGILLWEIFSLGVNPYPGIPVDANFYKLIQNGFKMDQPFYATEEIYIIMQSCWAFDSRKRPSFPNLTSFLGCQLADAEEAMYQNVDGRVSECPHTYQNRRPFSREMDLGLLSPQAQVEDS

The subject of assay [5] is BaF3. Kind of assay: cells. Conditions: Mus musculus, BaF3, 72 h. The source holds these as a separate data set.
Description: Antiproliferative activity against mouse BAF3 cells harboring FLT3-ITD-F691L mutant measured after 72 hrs by MTT assay
The subject of assay [6] is BaF3. Kind of assay: cells. Conditions: Mus musculus, BaF3, 72 h. This is another data set of the same source.
Description: Antiproliferative activity against mouse BAF3 cells harboring FLT3-ITD mutant measured after 72 hrs by MTT assay
In assay [7] the test system is MV4-11. The assay is described as follows: cells. Conditions: Homo sapiens, MV4-11, 72 h.
Description: Antiproliferative activity against human MV4-11 cells harboring FLT3-ITD mutant measured after 72 hrs by MTT assay
Assay [8] concerns HL-60. Kind of assay: Antiproliferative activity against human HL60 cells harboring wild-type FLT3 measured after 72 hrs by MTT assay. In kind it is functional, cell-based. The settings on record: HL-60, 72 h.

As for `CC(C)(C)c1cc(NC(=O)Nc2ccc(-c3cn(Cc4ccccc4)c4ncnc(N)c34)cc2)no1`, the IC50 was 2.5 nM in assay [1]; greater than 1000 nM in assay [2]; 95.4 nM in assay [3]; 86 nM in assay [4]; 134 nM in assay [5]; 8.45 nM in assay [6]. In addition, the IC50 is 1.76 nM in assay [7] and greater than 1000 nM in assay [8].

`CN(C)CCn1cc(-c2ccc(NC(=O)Nc3cc(C(C)(C)C)on3)cc2)c2c(N)ncnc21`: the IC50 was 0.134 nM in assay [1]; greater than 1000 nM in assay [2]; 170 nM in assay [3]; 17 nM in assay [4]; 85 nM in assay [5]; 1.62 nM in assay [6]. Moreover, the IC50 in assay [7] is 0.152 nM; in assay [8], greater than 1000 nM.

As to `C=CCCn1cc(-c2ccc(NC(=O)Nc3cc(C(C)(C)C)on3)c(F)c2)c2c(N)ncnc21`, the IC50 in assay [1] was 1.45 nM; in assay [2], greater than 1000 nM; in assay [3] it was 84.4 nM; in assay [4] it was 51 nM; in assay [5], 50.2 nM; in assay [6] it was 5.41 nM. The IC50 in assay [7] was 3.22 nM; in assay [8] it was greater than 1000 nM.

`CC(C)(C)c1cc(NC(=O)Nc2ccc(-c3cn(CC#N)c4ncnc(N)c34)cc2F)no1`: the IC50 in assay [1] was 0.73 nM; in assay [2], greater than 1000 nM; in assay [3], 86.7 nM; in assay [4] it was 19 nM; in assay [5] it was 9.84 nM; in assay [6] it was 1.27 nM. For the same molecule, the IC50 in assay [7] was 0.422 nM; in assay [8], greater than 1000 nM.

On to `CCn1cc(-c2ccc(NC(=O)Nc3cc(C(C)(C)C)on3)cc2)c2c(N)ncnc21`, for which the IC50 in assay [1] is 0.144 nM; in assay [2], greater than 1000 nM; in assay [3], 23.1 nM; in assay [4], 7 nM; in assay [5] it was 28.5 nM; in assay [6] it was 0.92 nM. For the same molecule, the results for the IC50 in assay [7] and in assay [8] were 0.476 nM and greater than 1000 nM, respectively.

On to `COCCn1cc(-c2ccc(NC(=O)Nc3cc(C(C)(C)C)on3)c(F)c2)c2c(N)ncnc21`, for which the IC50 in assay [1] is 0.58 nM; in assay [2] it was greater than 1000 nM; in assay [3] it was 69.7 nM; in assay [4], 32 nM; in assay [5], 39.4 nM; in assay [6] it was 5.57 nM. The half-maximal inhibitory concentration (IC50) is 1.98 nM in assay [7] and greater than 1000 nM in assay [8].

Consider `CCCn1cc(-c2ccc(NC(=O)Nc3cc(C(C)(C)C)on3)cc2)c2c(N)ncnc21`, for which the IC50 in assay [1] is 0.736 nM; in assay [2], greater than 1000 nM; in assay [3], 41.5 nM; in assay [4], 15 nM; in assay [5], 72.1 nM; in assay [6], 2.72 nM. The IC50 is 0.403 nM in assay [7] and greater than 1000 nM in assay [8].

On to `CCOCCn1cc(-c2ccc(NC(=O)Nc3cc(C(C)(C)C)on3)cc2)c2c(N)ncnc21`, for which the IC50 in assay [1] was 0.117 nM; in assay [2], greater than 1000 nM; in assay [3], 173 nM; in assay [4] it was 37 nM; in assay [5] it was 98.6 nM; in assay [6], 3.21 nM. Moreover, the IC50 in assay [7] was 1.47 nM; in assay [8], greater than 1000 nM.

`COCCn1cc(-c2ccc(NC(=O)Nc3cc(C(C)(C)C)on3)cc2)c2c(N)ncnc21`: the IC50 is 0.049 nM in assay [1]; greater than 1000 nM in assay [2]; 50.1 nM in assay [3]; 21 nM in assay [4]; 28.6 nM in assay [5]; 0.95 nM in assay [6]. For the same molecule, the half-maximal inhibitory concentration (IC50) in assay [7] is 0.149 nM; in assay [8], greater than 1000 nM.

As to `CC(C)(C)c1cc(NC(=O)Nc2ccc(-c3cn(CCN4CCN(S(C)(=O)=O)CC4)c4ncnc(N)c34)cc2)no1`, the IC50 in assay [1] was 10.6 nM; in assay [2] it was greater than 1000 nM; in assay [3], 166 nM; in assay [4], 26 nM; in assay [5], 86 nM; in assay [6] it was 3.59 nM. In addition, the figures for the IC50 in assay [7] and in assay [8] were 14.2 nM and greater than 1000 nM, respectively.

With `CC(C)(C)OC(=O)N1CCN(CCn2cc(-c3ccc(NC(=O)Nc4cc(C(C)(C)C)on4)cc3)c3c(N)ncnc32)CC1`, the IC50 was 4.43 nM in assay [1]; greater than 1000 nM in assay [2]; 385 nM in assay [3]; greater than 500 nM in assay [5]; 8.95 nM in assay [6]; 2.54 nM in assay [7]. This molecule also showed an IC50 in assay [8] greater than 1000 nM.

Take `CC(C)(C)c1cc(NC(=O)Nc2ccc(-c3cn(CCN4CCNCC4)c4ncnc(N)c34)cc2)no1`: the IC50 in assay [1] is 2.56 nM; in assay [2], greater than 1000 nM; in assay [3] it was 156 nM; in assay [4], 9 nM; in assay [5] it was greater than 200 nM; in assay [6], 8.67 nM. In addition, the IC50 in assay [7] is 1.75 nM; in assay [8], greater than 1000 nM.

On to `C=CCn1cc(-c2ccc(NC(=O)Nc3cc(C(C)(C)C)on3)c(F)c2)c2c(N)ncnc21`, for which the IC50 in assay [1] is 0.65 nM; in assay [2], greater than 1000 nM; in assay [3], 51.9 nM; in assay [4], 17 nM; in assay [5] it was 82.4 nM; in assay [6], 3.04 nM. Further, the results for the IC50 in assay [7] and in assay [8] were 2.34 nM and greater than 1000 nM, respectively.

Turning to `C#CCn1cc(-c2ccc(NC(=O)Nc3cc(C(C)(C)C)on3)c(F)c2)c2c(N)ncnc21`, the IC50 is 0.389 nM in assay [1]; greater than 1000 nM in assay [2]; 102 nM in assay [3]; 46 nM in assay [4]; 16.1 nM in assay [5]; 2.48 nM in assay [6]. Moreover, the results for the concentration for half-maximal inhibition (IC50) in assay [7] and in assay [8] were 0.434 nM and greater than 1000 nM, respectively.

Take `CC(C)(C)c1cc(NC(=O)Nc2ccc(-c3cn(CCC#N)c4ncnc(N)c34)cc2)no1`: the IC50 was 0.52 nM in assay [1]; greater than 1000 nM in assay [2]; 24.6 nM in assay [3]; 6 nM in assay [4]; 19.6 nM in assay [5]; 1.6 nM in assay [6]. Moreover, the IC50 was 0.376 nM in assay [7] and greater than 1000 nM in assay [8].

Turning to `C=CCCn1cc(-c2ccc(NC(=O)Nc3cc(C(C)(C)C)on3)cc2)c2c(N)ncnc21`, the IC50 is 1.06 nM in assay [1]; greater than 1000 nM in assay [2]; 176 nM in assay [3]; 38 nM in assay [4]; 91.8 nM in assay [5]; 4.92 nM in assay [6]. In addition, the figures for the IC50 in assay [7] and in assay [8] were 1.75 nM and greater than 1000 nM, respectively.

As to `CC(C)=CCn1cc(-c2ccc(NC(=O)Nc3cc(C(C)(C)C)on3)cc2)c2c(N)ncnc21`, the IC50 is 2.77 nM in assay [1]; greater than 1000 nM in assay [2]; 305 nM in assay [3]; 113 nM in assay [4]; 216 nM in assay [5]; 8.67 nM in assay [6]. Moreover, the IC50 in assay [7] was 10.3 nM; in assay [8], greater than 1000 nM.

Turning to `CC(C)(C)OC(=O)n1cc(-c2ccc(NC(=O)Nc3cc(C(C)(C)C)on3)cc2)c2c(N)ncnc21`, the IC50 was 0.081 nM in assay [1]; greater than 1000 nM in assay [2]; 12.4 nM in assay [3]; 25 nM in assay [4]; 8.92 nM in assay [5]; 1.28 nM in assay [6]. Besides, the 50% inhibitory concentration (IC50) in assay [7] is 0.107 nM; in assay [8], greater than 1000 nM.

Consider `C=CCCCn1cc(-c2ccc(NC(=O)Nc3cc(C(C)(C)C)on3)cc2)c2c(N)ncnc21`, for which the IC50 in assay [1] is 2.22 nM; in assay [2], greater than 1000 nM; in assay [3], 140 nM; in assay [4], 69 nM; in assay [5], 200 nM; in assay [6], 5.95 nM. Moreover, the figures for the IC50 in assay [7] and in assay [8] were 2.94 nM and greater than 1000 nM, respectively.

As for `CCOCCn1cc(-c2ccc(NC(=O)Nc3cc(C(C)(C)C)on3)c(F)c2)c2c(N)ncnc21`, the IC50 in assay [1] was 1.55 nM; in assay [2], greater than 1000 nM; in assay [3], 55.4 nM; in assay [4], 49 nM; in assay [5] it was 42.7 nM; in assay [6] it was 4.6 nM. Moreover, the IC50 in assay [7] was 1.34 nM; in assay [8], greater than 1000 nM.

For `Cn1cc(-c2ccc(NC(=O)Nc3cc(C(C)(C)C)on3)cc2)c2c(N)ncnc21`, the IC50 was 0.014 nM in assay [1]; greater than 1000 nM in assay [2]; 46.2 nM in assay [3]; 7 nM in assay [4]; 27.9 nM in assay [5]; 1.44 nM in assay [6]. Moreover, the values for the IC50 in assay [7] and in assay [8] were 0.311 nM and greater than 1000 nM, respectively.
